Several values for one entry are separate records, joined by “and”; a condition that tells them apart may be missing. Equal values may be shown once. Where a SMILES comes first, the peptide text is derived from it. [ ]: non-standard residue; d: D form. Hyp = O=C(O)[C@@H]1C[C@@H](O)CN1
Test system: human PBMCs
Assay: PBMC cell counts (total, live, viability; trypan blue, Countess) with and without LPS and test articles (Example 9)
Type: cell-based
Method: Treatment Human PBMCs were pretreated with YY-101, YDE-011 and YDE-043 or reference compound; Xiidra® at various concentration (ranging from 1 nM to 100 uM) for 2 h before stimulation. An equal volume of 0.5% DMSO was used as a vehicle control. Then, the cells were treated with LPS at 5 ug/ml. The supernatants from treated cells were harvested at 24 h and placed in a 96 well for Luminex cytokine & chemokine profiling using a Luminex 200 multiplex assay (Luminex; R&D system, USA).
The main study arm with triplicate wells per group in a 24-well plate: • 1. Blank • 2. PBMC: 0.5% DMSO • 3. PBMC+LPS (5 ug/ml) • 4. PBMC+YY-101 100 uM • 5. PBMC+YY-101 10 uM • 6. PBMC+YY-101 1 uM • 7. PBMC+YY-101 0.1 uM • 8. PBMC+YY-101 0.01 uM • 9. PBMC+LPS (5 ug/ml)+Xiidra®100 uM • 10. PBMC+LPS (5 ug/ml)+Xiidra® 10 uM • 11. PBMC+LPS (5 ug/ml)+Xiidra® 1 uM • 12. PBMC+LPS (5 ug/ml)+Xiidra®0.1 uM • 13. PBMC+LPS (5 ug/ml)+Xiidra®0.01 uM • 14. PBMC+LPS (5 ug/ml)+Xiidra®0.001 uM • 15. PBMC+LPS (5 ug/ml)+YY-101 100 uM • 16. PBMC+LPS (5 ug/ml)+YY-101 10 uM • 17. PBMC+LPS (5 ug/ml)+YY-101 1 uM • 18. PBMC+LPS (5 ug/ml)+YY-101 0.1 uM • 19. PBMC+LPS (5 ug/ml)+YY-101 0.01 uM • 20. PBMC+LPS (5 ug/ml)+YY-101 0.001 uM • 21. PBMC+LPS (5 ug/ml)+YDE-011 100 uM • 22. PBMC+LPS (5 ug/ml)+YDE-011 10 uM • 23. PBMC+LPS (5 ug/ml)+YDE-011 1 uM • 24. PBMC+LPS (5 ug/ml)+YDE-011 0.1 uM • 25. PBMC+LPS (5 ug/ml)+YDE-011 0.01 uM • 26. PBMC+LPS (5 ug/ml)+YDE-011 0.001 uM • 27. PBMC+LPS (5 ug/ml)+YDE-043 100 uM • 28. PBMC+LPS (5 ug/ml)+YDE-043 10 uM • 29. PBMC+LPS (5 ug/ml)+YDE-043 1 uM • 30. PBMC+LPS (5 ug/ml)+YDE-043 0.1 uM • 31. PBMC+LPS (5 ug/ml)+YDE-043 0.01 uM • 32. PBMC+LPS (5 ug/ml)+YDE-043 0.001 uM
The number of PBMCs was measured after 24 hr of treatment. The culture both and trypan blue were diluted 1:1 and 10 ul was added to Countess cell counting chamber (Thermo fisher, USA). The number of PBMCs was measured using a Countess automated cell counter (Thermo fisher, USA).

[1] = PBMC + LPS(5 ug/ml) + test article 100 uM, Mean
[2] = PBMC + LPS(5 ug/ml) + test article 100 uM, single replicates
[3] = PBMC + LPS(5 ug/ml), test article 0.001 uM, Mean
[4] = PBMC + LPS(5 ug/ml), test article 0.001 uM, single replicates
[5] = PBMC + LPS(5 ug/ml), test article 0.01 uM, Mean
[6] = PBMC + LPS(5 ug/ml), test article 0.01 uM, single replicates
[7] = PBMC + LPS(5 ug/ml), test article 0.1 uM, Mean
[8] = PBMC + LPS(5 ug/ml), test article 0.1 uM, single replicates
[9] = PBMC + LPS(5 ug/ml), test article 1 uM, Mean
[10] = PBMC + LPS(5 ug/ml), test article 1 uM, single replicates
[11] = PBMC + LPS(5 ug/ml), test article 10 uM, Mean
[12] = PBMC + LPS(5 ug/ml), test article 10 uM, single replicates
[13] = PBMC + LPS(5 ug/ml), test article 100 uM, Mean
[14] = PBMC + LPS(5 ug/ml), test article 100 uM, single replicates

SMILES: CC(C)C[C@H](NC(=O)CNC(=O)[C@H](CC(C)C)NC(=O)[C@H](CCC(N)=O)NC(=O)CNC(=O)[C@@H]1C[C@@H](O)CN1)C(=O)N[C@@H](C)C(=O)NCC(=O)N1CCC[C@H]1C(=O)N[C@@H](CCCCN)C(=O)O [YDE-011] (H-[Hyp]GQLGLAGPK-OH)
- Live cell (PBMC + LPS(5 ug/ml) + test article 10 uM, single replicates (1st, 2nd, 3rd)): 5.4 10^5/ml and 5.8 10^5/ml and 4.7 10^5/ml
- Live cell [1]: 6.1 10^5/ml
- Live cell (10^5/ml) [1]: 6.1 10^5/ml
- Live cell, Mean [1]: 6.1 10^5/ml
- Live cell (PBMC + LPS(5 ug/ml) + test article 100 uM, individual replicates): 6.1 10^5/ml (2×) and 6.0 10^5/ml
- Live cell (PBMC + LPS(5 ug/ml) + test article 100 uM, individual replicates (1st, 2nd, 3rd)): 6.1 10^5/ml (2×) and 6.0 10^5/ml
- Live cell [2]: 6.1 10^5/ml (2×) and 6.0 10^5/ml
- Live cell (10^5/ml) [2]: 6.1 10^5/ml (2×) and 6.0 10^5/ml
- Live cell (PBMC + LPS(5 ug/ml) + test article 100 uM, single replicates (1st, 2nd, 3rd)): 6.1 10^5/ml (2×) and 6.0 10^5/ml
- Live cell (PBMC + LPS(5 ug/ml), 0.001 uM, Mean): 5.4 10^5/ml
- Live cell (PBMC + LPS(5 ug/ml), 0.001 uM, single replicates): 4.5 10^5/ml and 5.8 10^5/ml (2×)
- Live cell (PBMC + LPS(5 ug/ml), 0.01 uM, Mean): 5.9 10^5/ml
- Live cell (PBMC + LPS(5 ug/ml), 0.01 uM, single replicates): 6.2 10^5/ml and 5.1 10^5/ml and 6.3 10^5/ml
- Live cell (PBMC + LPS(5 ug/ml), 0.1 uM, Mean): 5.8 10^5/ml
- Live cell (PBMC + LPS(5 ug/ml), 0.1 uM, single replicates): 6.6 10^5/ml and 5.0 10^5/ml and 5.7 10^5/ml
- Live cell (PBMC + LPS(5 ug/ml), 1 uM, Mean): 5.0 10^5/ml
- Live cell (PBMC + LPS(5 ug/ml), 1 uM, single replicates): 5.5 10^5/ml and 4.8 10^5/ml (2×)
- Live cell (PBMC + LPS(5 ug/ml), 10 uM, Mean): 5.3 10^5/ml
- Live cell (PBMC + LPS(5 ug/ml), 10 uM, single replicates): 5.4 10^5/ml and 5.8 10^5/ml and 4.7 10^5/ml
- Live cell (PBMC + LPS(5 ug/ml), 100 uM, Mean): 6.1 10^5/ml
- Live cell (PBMC + LPS(5 ug/ml), 100 uM, single replicates): 6.1 10^5/ml (2×) and 6.0 10^5/ml
- Live cell [3]: 5.4 10^5/ml
- Total cell count [3]: 6.3 10^5/ml
- Live cell [4]: 4.5 10^5/ml and 5.8 10^5/ml (2×)
- Total cell count [4]: 5.9 10^5/ml and 6.3 10^5/ml and 6.6 10^5/ml
- Viability [4]: 75.0% and 92.0% and 88.0%
- Live cell [5]: 5.9 10^5/ml
- Total cell count [5]: 7.3 10^5/ml
- Live cell [6]: 6.3 10^5/ml and 6.2 10^5/ml and 5.1 10^5/ml
- Total cell count [6]: 7.6 10^5/ml and 7.8 10^5/ml and 6.4 10^5/ml
- Viability [6]: 79.0%
- Live cell [7]: 5.8 10^5/ml
- Total cell count [7]: 7.1 10^5/ml
- Live cell [8]: 6.6 10^5/ml and 5.0 10^5/ml and 5.7 10^5/ml
- Total cell count [8]: 7.8 10^5/ml and 5.7 10^5/ml and 7.7 10^5/ml
- Viability [8]: 85.0% and 87.0% and 74.0%
- Live cell [9]: 5.0 10^5/ml
- Total cell count [9]: 6.4 10^5/ml
- Live cell [10]: 5.5 10^5/ml and 4.8 10^5/ml
- Total cell count [10]: 6.2 10^5/ml and 7.0 10^5/ml and 5.9 10^5/ml
- Viability [10]: 89.0% and 69.0% and 81.0%
- Live cell [11]: 5.3 10^5/ml
- Total cell count [11]: 6.0 10^5/ml
- Live cell [12]: 5.4 10^5/ml and 5.8 10^5/ml and 4.7 10^5/ml
- Total cell count [12]: 5.9 10^5/ml and 6.7 10^5/ml and 5.4 10^5/ml
- Viability [12]: 91.0% and 86.0% and 88.0%
- Live cell [13]: 6.1 10^5/ml
- Total cell count [13]: 8.2 10^5/ml
- Live cell [14]: 6.1 10^5/ml (2×) and 6.0 10^5/ml
- Total cell count [14]: 7.6 10^5/ml and 8.1 10^5/ml and 9.0 10^5/ml
- Viability [14]: 81.0% and 75.0% and 67.0%
- which treatments consistently affected the total and live number of PBMCs or the percent viability (in words) (up to 100 μM, 24-hour treatment): none of

Reference: patent US20230146455A1, “TREATMENT OF INFLAMMATORY DISEASES WITH PEPTIDES AND PHARMACEUTICAL COMPOSITIONS” (Yuyu Pharma, Inc., priority 2020, published 2023)
